Reference: patent US9695155B2, “Herbicidal substituted pyrimidinyloxy benzene compounds” (E. I. DU PONT DE NEMOURS AND COMPANY, priority 2013, dated 2017)

How the values were obtained:
ducksalad = assay: Test C flooded paddy test; type: in vivo, Heteranthera limosa; conditions: Flood, scale 0 to 100 (0 no effect, 100 complete control), 13 to 15 days
Outline: (§1)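 Test compounds are applied straight into paddy water held 3 cm above the soil surface, with that flood maintained for the whole test. After 13 to 15 days in the greenhouse, each species is scored visually relative to controls.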

surinam grass = assay: Test E preemergence; type: in vivo, Brachiaria decumbens; conditions: for Surinam Grass plant response rating: scale 0 to 100 (0 no effect, 100 complete control); for Plant response rating, Surinam Grass: 125 g ai/ha, scale 0 to 100, 0 no effect, 100 complete control
Outline: (§2)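 Compound in a non-phytotoxic solvent mixture with surfactant was applied preemergence to seeds in silt loam soil, or postemergence to plants 2 to 18 cm tall grown in peat-based potting medium. Plants were kept in a greenhouse for 14 to 21 days, then rated visually against untreated controls on a 0 (no effect) to 100 (complete control) scale.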

waterhemp = assay: Test E preemergence; type: in vivo, Amaranthus rudis; conditions: for Waterhemp plant response rating: scale 0 to 100 (0 no effect, 100 complete control); for Plant response rating, Waterhemp: 125 g ai/ha, scale 0 to 100, 0 no effect, 100 complete control
Outline: as §2

giant foxtail = assay: Test E preemergence; type: in vivo, Setaria faberii; conditions: for Foxtail, Giant plant response rating: scale 0 to 100 (0 no effect, 100 complete control); for Plant response rating, Foxtail, Giant: 125 g ai/ha, scale 0 to 100, 0 no effect, 100 complete control
Outline: as §2

Italian ryegrass = assay: Test E preemergence; type: in vivo, Lolium multiflorum; conditions: for Ryegrass, Italian plant response rating: scale 0 to 100 (0 no effect, 100 complete control); for Plant response rating, Ryegrass, Italian: 125 g ai/ha, scale 0 to 100, 0 no effect, 100 complete control
Outline: as §2

lambsquarters = assay: Test E preemergence; type: in vivo, Chenopodium album; conditions: for Lambsquarters plant response rating: scale 0 to 100 (0 no effect, 100 complete control); for Plant response rating, Lambsquarters: 125 g ai/ha, scale 0 to 100, 0 no effect, 100 complete control
Outline: as §2

sandbur = assay: Test E preemergence; type: in vivo, Cenchrus echinatus; conditions: for Sandbur plant response rating: scale 0 to 100 (0 no effect, 100 complete control); for Plant response rating, Sandbur: 125 g ai/ha, scale 0 to 100, 0 no effect, 100 complete control
Outline: as §2

corn = assay: Test E preemergence; type: in vivo, Zea mays; conditions: for Corn plant response rating: scale 0 to 100 (0 no effect, 100 complete control); for Plant response rating, Corn: 125 g ai/ha, scale 0 to 100, 0 no effect, 100 complete control
Outline: as §2

barnyardgrass = assay: Test C flooded paddy test; type: in vivo, Echinochloa crus-galli; conditions: Flood, scale 0 to 100 (0 no effect, 100 complete control), 13 to 15 days
Outline: as §1

morningglory = assay: Test E preemergence; type: in vivo, Ipomoea coccinea; conditions: for Morningglory plant response rating: scale 0 to 100 (0 no effect, 100 complete control); for Plant response rating, Morningglory: 125 g ai/ha, scale 0 to 100, 0 no effect, 100 complete control
Outline: as §2

fall panicum = assay: Test E preemergence; type: in vivo, Panicum dichotomiflorum; conditions: for Panicum, Fall plant response rating: scale 0 to 100 (0 no effect, 100 complete control); for Plant response rating, Panicum, Fall: 125 g ai/ha, scale 0 to 100, 0 no effect, 100 complete control
Outline: as §2

goosegrass = assay: Test E preemergence; type: in vivo, Eleusine indica; conditions: for Goosegrass plant response rating: scale 0 to 100 (0 no effect, 100 complete control); for Plant response rating, Goosegrass: 125 g ai/ha, scale 0 to 100, 0 no effect, 100 complete control
Outline: as §2

soybean = assay: Test E preemergence; type: in vivo, Glycine max; conditions: for Soybean plant response rating: scale 0 to 100 (0 no effect, 100 complete control); for Plant response rating, Soybean: 125 g ai/ha, scale 0 to 100, 0 no effect, 100 complete control
Outline: as §2

palmer pigweed = assay: Test E preemergence; type: in vivo, Amaranthus palmeri; conditions: for Pigweed, Palmer plant response rating: scale 0 to 100 (0 no effect, 100 complete control); for Plant response rating, Pigweed, Palmer: 125 g ai/ha, scale 0 to 100, 0 no effect, 100 complete control
Outline: as §2

kochia = assay: Test A postemergence; type: in vivo, Kochia scoparia; conditions: 0 to 100 scale, 0 no effect, 100 complete control
Outline: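 Injury scores run from 0, no effect, to 100, complete control, judged by eye against untreated plants roughly 10 days after treatment. Chemicals carried a surfactant in a non-phytotoxic solvent and went onto loam–sand soil preemergence or onto one- to two-leaf seedlings postemergence.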

FC(F)(F)c1cnn(-c2c(Cl)cccc2Oc2ncc(Cl)cn2)c1 [Compound 167]
Plant response rating, Ducksalad (ducksalad; 31 g ai/ha): 0 | Plant response rating, Ducksalad (ducksalad; 62 g ai/ha): 50 | Plant response rating, Ducksalad (ducksalad; 125 g ai/ha): 60 | Plant response rating, Ducksalad (ducksalad; 250 g ai/ha): 80 | Surinam Grass plant response rating (surinam grass; 31 g ai/ha): 0 | Surinam Grass plant response rating (surinam grass; 62 g ai/ha): 0 | Plant response rating, Surinam Grass (surinam grass): 0 | Waterhemp plant response rating (waterhemp; 31 g ai/ha): 98 | Waterhemp plant response rating (waterhemp; 62 g ai/ha): 98 | Plant response rating, Waterhemp (waterhemp): 100 | Foxtail, Giant plant response rating (giant foxtail; 16 g ai/ha): 0 | Foxtail, Giant plant response rating (giant foxtail; 31 g ai/ha): 0 | Foxtail, Giant plant response rating (giant foxtail; 62 g ai/ha): 100 | Plant response rating, Foxtail, Giant (giant foxtail): 100 | Ryegrass, Italian plant response rating (Italian ryegrass; 31 g ai/ha): 0 | Ryegrass, Italian plant response rating (Italian ryegrass; 62 g ai/ha): 10 | Plant response rating, Ryegrass, Italian (Italian ryegrass): 40 | Lambsquarters plant response rating (lambsquarters; 31 g ai/ha): 98 | Lambsquarters plant response rating (lambsquarters; 62 g ai/ha): 100 | Plant response rating, Lambsquarters (lambsquarters): 100 | Sandbur plant response rating (sandbur; 31 g ai/ha): 0 | Sandbur plant response rating (sandbur; 62 g ai/ha): 20 | Plant response rating, Sandbur (sandbur): 65 | Corn plant response rating (corn; 16 g ai/ha): 0 | Corn plant response rating (corn; 31 g ai/ha): 0 | Corn plant response rating (corn; 62 g ai/ha): 15 | Plant response rating, Corn (corn): 25 | Plant response rating, Barnyardgrass (barnyardgrass; 31 g ai/ha): 0 | Plant response rating, Barnyardgrass (barnyardgrass; 62 g ai/ha): 0 | Plant response rating, Barnyardgrass (barnyardgrass; 125 g ai/ha): 0 | Plant response rating, Barnyardgrass (barnyardgrass; 250 g ai/ha): 0 | Morningglory plant response rating (morningglory; 31 g ai/ha): 25 | Morningglory plant response rating (morningglory; 62 g ai/ha): 40 | Plant response rating, Morningglory (morningglory): 65 | Panicum, Fall plant response rating (fall panicum; 31 g ai/ha): 65 | Panicum, Fall plant response rating (fall panicum; 62 g ai/ha): 100 | Plant response rating, Panicum, Fall (fall panicum): 100 | Goosegrass plant response rating (goosegrass; 31 g ai/ha): 60 | Goosegrass plant response rating (goosegrass; 62 g ai/ha): 75 | Plant response rating, Goosegrass (goosegrass): 98 | Soybean plant response rating (soybean; 31 g ai/ha): 0 | Soybean plant response rating (soybean; 62 g ai/ha): 20 | Plant response rating, Soybean (soybean): 50 | Pigweed, Palmer plant response rating (palmer pigweed; 31 g ai/ha): 0 | Pigweed, Palmer plant response rating (palmer pigweed; 62 g ai/ha): 98 | Plant response rating, Pigweed, Palmer (palmer pigweed): 100

FCc1cccc(Oc2ncc(Cl)cn2)c1-n1cc(Cl)cn1 [Compound 250]
Surinam Grass plant response rating (surinam grass; 31 g ai/ha): 0 | Surinam Grass plant response rating (surinam grass; 62 g ai/ha): 0 | Plant response rating, Surinam Grass (surinam grass): 0 | Waterhemp plant response rating (waterhemp; 31 g ai/ha): 0 | Waterhemp plant response rating (waterhemp; 62 g ai/ha): 0 | Plant response rating, Waterhemp (waterhemp): 100 | Foxtail, Giant plant response rating (giant foxtail; 16 g ai/ha): 0 | Foxtail, Giant plant response rating (giant foxtail; 31 g ai/ha): 0 | Foxtail, Giant plant response rating (giant foxtail; 62 g ai/ha): 15 | Plant response rating, Foxtail, Giant (giant foxtail): 98 | Ryegrass, Italian plant response rating (Italian ryegrass; 31 g ai/ha): 0 | Ryegrass, Italian plant response rating (Italian ryegrass; 62 g ai/ha): 0 | Plant response rating, Ryegrass, Italian (Italian ryegrass): 0 | Lambsquarters plant response rating (lambsquarters; 31 g ai/ha): 0 | Lambsquarters plant response rating (lambsquarters; 62 g ai/ha): 0 | Plant response rating, Lambsquarters (lambsquarters): 100 | Sandbur plant response rating (sandbur; 31 g ai/ha): 0 | Sandbur plant response rating (sandbur; 62 g ai/ha): 0 | Plant response rating, Sandbur (sandbur): 25 | Corn plant response rating (corn; 16 g ai/ha): 0 | Corn plant response rating (corn; 31 g ai/ha): 0 | Corn plant response rating (corn; 62 g ai/ha): 0 | Plant response rating, Corn (corn): 20 | Morningglory plant response rating (morningglory; 31 g ai/ha): 0 | Morningglory plant response rating (morningglory; 62 g ai/ha): 0 | Plant response rating, Morningglory (morningglory): 20 | Panicum, Fall plant response rating (fall panicum; 31 g ai/ha): 0 | Panicum, Fall plant response rating (fall panicum; 62 g ai/ha): 0 | Plant response rating, Panicum, Fall (fall panicum): 100 | Goosegrass plant response rating (goosegrass; 31 g ai/ha): 0 | Goosegrass plant response rating (goosegrass; 62 g ai/ha): 0 | Plant response rating, Goosegrass (goosegrass): 65 | Soybean plant response rating (soybean; 31 g ai/ha): 0 | Soybean plant response rating (soybean; 62 g ai/ha): 15 | Plant response rating, Soybean (soybean): 65 | Plant response rating, Kochia (kochia; 31 g ai/ha): 60 | Plant response rating, Kochia (kochia; 125 g ai/ha): 90 | Pigweed, Palmer plant response rating (palmer pigweed; 31 g ai/ha): 0 | Pigweed, Palmer plant response rating (palmer pigweed; 62 g ai/ha): 0 | Plant response rating, Pigweed, Palmer (palmer pigweed): 100
